Source: US20110318768A1, “METHOD FOR DETERMINING SENSITIVITY OF TUMOR CELLS TO TYROSINE KINASE INHIBITOR AND COMPUTER PROGRAM PRODUCT” (SYSMEX CORPORATION, priority 2010, published 2011)

How the values were obtained:
Assay in all cases: Tyrosine kinase activity inhibition rate in cell membrane fraction (Poly-Glu4-Tyr substrate)
Assay type in all cases: biochemical
[1] = system: tyrosine kinase in cell membrane fraction of MDA-MB-435S; details: 25 μM kinase inhibitor, 25 μM ATP
Method: (§1) Breast cancer cell lines shown in Table 3 were cultured in a 150 mm dish so as to be about 80% confluent, the cells were recovered using PBS and a scraper, and a cell pellet was obtained by centrifugal operation (900×g, for 5 minutes, at 4° C.). The pellet was frozen with liquid nitrogen and stored at −80° C. until preparation of the measurement sample.
(§2) 500 μl of NP40 (−) solubilized buffer (20 mM HEPES (pH 7.4)), (w/v) % glycerol, 0.2% protease inhibitor cocktail (#P8340: Sigma-Aldrich (product composition: 104 mM AEBSF, 80 μM aprotinin, 4 mM bestatin, 1.4 mM E-64, 2 mM leupeptin, 1.5 mM Pepstatin A), 50 mM NaF and 200 μM Na3VO4) was added to the cell pellet, followed by stirring for 2 seconds three times using a vortex mixer. After being allowed to stand for 10 minutes, the soluble fraction was removed by centrifugal operation (at 20000×g, for 30 minutes, at 4° C.). The obtained pellet was resuspended in 500 μl of NP40 (−) solubilized buffer, the soluble fraction was again removed by centrifugal operation (at 20000×g, for 20 minutes, at 4° C.), and the pellet was washed. The pellet was resuspended by adding 500 μl of NP40 (+) solubilized buffer (a buffer prepared by adding NP-40 to the NP40 (−) solubilized buffer at a final concentration of 1%) to the pellet, pipetting fifty times, and vortexing for 2 seconds three times. After being allowed to stand for 10 minutes, a cell membrane fraction containing a membrane protein was obtained by centrifugal operation (at 20000×g, for 40 minutes, at 4° C.). The protein concentration of the fraction was measured by DC protein assay (#500-0116 JA: Bio-Rad) and the fraction was used as a sample for kinase activity measurement. The sample was frozen with liquid nitrogen and stored at −80° C. until used for the following kinase activity measurement.
(§3) NeutrAvidin Coated Plates (HBC) (96 white plate; #15509: Pierce) were washed three times with 300 μl of TBS-T (20 mM Tris-HCl (pH 7.4)), 150 mM NaCl, 0.1% Tween), and then 100 μl of Poly-Glu4-Tyr biotin conjugate (#12440: Upstate) which had been diluted to 1 μg/ml with TBS (20 mM Tris-HCl (pH 7.4), 150 mM NaCl) was added to the wells. After shaking at 37° C. and 400 rpm for 90 minutes, the wells were washed with 300 μl of TBS-T three times and a measuring plate was obtained.
(§4) The measurement sample was diluted with a kinase buffer (20 mM HEPES (pH 7.4), 25 mM MgCl2, 1.25 mM MnCl2, 250 μM Na3VO4, 12.5 (w/v) % glycerol) so as to adjust the protein concentration to 6.25 μg/ml. The diluted measurement sample was transferred to wells of a 96 well V bottom plate. A DMSO solution (inhibitor concentration: 5 mM) containing one type of tyrosine kinase inhibitors (Inhibitors 1 to 10 shown in Table 6) was added to the wells at a ratio of 1:160 based on the diluted measurement sample solution, followed by mixing thereof. As the control, DMSO was added to the diluted measurement sample at the same ratio as the solution of the inhibitor. The used tyrosine kinase inhibitors are represented as Inhibitors 1 to 10 in Table 6.
(§5) After addition of the inhibitors, a mixed solution of the measurement sample and the inhibitor was allowed to stand at room temperature for 10 minutes. 40 μl of the mixed solution was transferred to wells of the measuring plate and 10 μl of an ATP solution (20 mM HEPES (pH 7.4), […]) as the phosphate group donor was added to the wells.
(§6) The composition of the solution in the wells is as follows: protein concentration: 5 μg/ml, 20 mM HEPES (pH 7.4), 20 mM MgCl2, 1 mM MnCl2, 200 μM Na3VO4, 10 (w/v) % glycerol, 25 μM ATP, 25 μM kinase inhibitor.
(§7) After shaking the measuring plate at 37° C. and 400 rpm for 60 minutes, the solution was removed from the measuring plate, and the wells were washed with 300 μl of TBS-T three times. 100 μl of Starting Block T20 (TBS) (#37543: Pierce) as a blocking solution was added to the wells, followed by blocking at 37° C. and 400 rpm for 10 minutes. The blocking solution was removed from the measuring plate. […]

[2] = system: tyrosine kinase in cell membrane fraction of AU565; details: 25 μM kinase inhibitor, 25 μM ATP
Method: as §1, §2, §3, §4, §5, §6, §7

[3] = system: tyrosine kinase in cell membrane fraction of HCC1806; details: 25 μM kinase inhibitor, 25 μM ATP
Method: as §1, §2, §3, §4, §5, §6, §7

[4] = system: tyrosine kinase in cell membrane fraction of UACC812; details: UACC812; 25 μM kinase inhibitor, 25 μM ATP
Method: as §1, §2, §3, §4, §5, §6, §7

[5] = system: tyrosine kinase in cell membrane fraction of CAMA-1; details: 25 μM kinase inhibitor, 25 μM ATP
Method: as §1, §2, §3, §4, §5, §6, §7

[6] = system: tyrosine kinase in cell membrane fraction of BT-549; details: 25 μM kinase inhibitor, 25 μM ATP
Method: as §1, §2, §3, §4, §5, §6, §7

[7] = system: tyrosine kinase in cell membrane fraction of MDA-MB-453; details: 25 μM kinase inhibitor, 25 μM ATP
Method: as §1, §2, §3, §4, §5, §6, §7

[8] = system: tyrosine kinase in cell membrane fraction of MCF7; details: 25 μM kinase inhibitor, 25 μM ATP
Method: as §1, §2, §3, §4, §5, §6, §7

[9] = system: tyrosine kinase in cell membrane fraction of UACC893; details: UACC893; 25 μM kinase inhibitor, 25 μM ATP
Method: as §1, §2, §3, §4, §5, §6, §7

[10] = system: tyrosine kinase in cell membrane fraction of BT-20; details: 25 μM kinase inhibitor, 25 μM ATP
Method: as §1, §2, §3, §4, §5, §6, §7

[11] = system: tyrosine kinase in cell membrane fraction of HCC1428; details: 25 μM kinase inhibitor, 25 μM ATP
Method: as §1, §2, §3, §4, §5, §6, §7

[12] = system: tyrosine kinase in cell membrane fraction of BT-474; details: 25 μM kinase inhibitor, 25 μM ATP
Method: as §1, §2, §3, §4, §5, §6, §7

[13] = system: tyrosine kinase in cell membrane fraction of SK-BR-3; details: 25 μM kinase inhibitor, 25 μM ATP
Method: as §1, §2, §3, §4, §5, §6, §7

[14] = system: tyrosine kinase in cell membrane fraction of MDA-MB-468; details: 25 μM kinase inhibitor, 25 μM ATP
Method: as §1, §2, §3, §4, §5, §6, §7

[15] = system: tyrosine kinase in cell membrane fraction of ZR-75-1; details: 25 μM kinase inhibitor, 25 μM ATP
Method: as §1, §2, §3, §4, §5, §6, §7

[16] = system: tyrosine kinase in cell membrane fraction of HS578T; details: 25 μM kinase inhibitor, 25 μM ATP
Method: as §1, §2, §3, §4, §5, §6, §7

Row | Structure (SMILES) | Inhibition rate [1] | Inhibition rate [2] | Inhibition rate [3] | Inhibition rate [4] | Inhibition rate [5] | Inhibition rate [6] | Inhibition rate [7] | Inhibition rate [8] | Inhibition rate [9] | Inhibition rate [10] | Inhibition rate [11] | Inhibition rate [12] | Inhibition rate [13] | Inhibition rate [14] | Inhibition rate [15] | Inhibition rate [16]
1 | COc1cc2ncnc(Nc3cccc(Cl)c3)c2cc1OC [Inhibitor 1] | 33.4% | 29.3% | 57.9% | 49.3% | 14.3% | 52.9% | 39.8% | 48.0% | 21.2% | 47.2% | 19.3% | 26.0% | 46.8% | 77.4% | 20.8% | 53.8%
2 | CN1CCC(Nc2ncc3ncnc(Nc4ccc(F)c(Cl)c4)c3n2)CC1 [Inhibitor 2] | 3.8% | 7.7% | 29.6% | 30.3% | −3.4% | 21.7% | 19.9% | 19.9% | 4.1% | 18.9% | 6.8% | 10.5% | 18.8% | 52.1% | 9.0% | 20.8%
3 | COc1cc2ncnc(Nc3ccc(OCc4ccccc4)cc3)c2cc1OC [Inhibitor 3, 4-(4-benzyloxyanilino)-6,7-dimethoxyquinazoline] | 37.2% | 25.7% | 56.4% | 66.6% | 16.7% | 59.8% | 36.9% | 11.3% | 22.9% | 42.2% | 29.8% | 15.1% | 44.1% | 76.9% | 38.5% | 40.0%
4 | CN(C)c1cc2c(Nc3ccc4c(cnn4Cc4ccccc4)c3)ncnc2cn1 [Inhibitor 4, N4-(1-benzyl-1H-indazol-5-yl)-N6,N6-dimethyl-pyrido-[3,4-d]-pyrimidine-4,6-diamine] | 22.6% | −3.8% | 33.7% | 59.4% | 7.3% | 48.8% | 27.9% | 12.1% | −3.1% | 32.4% | 7.9% | 24.6% | 31.4% | 71.6% | 7.0% | 32.1%
5 | CS(=O)(=O)CCNCc1nc(-c2ccc3ncnc(Nc4ccc(OCc5cccc(F)c5)c(Cl)c4)c3c2)cs1.Cl.Cl [Inhibitor 5, N-[3-chloro-4-[(3-fluorophenyl)methoxy]phenyl]-6-[2-[[[2-(methylsulfonyl)ethyl]amino]methyl]-4-thiazolyl]-4-quinazolineamine dihydrochloride] | 57.8% | 40.9% | 68.4% | 80.4% | 48.6% | 68.8% | 70.4% | 75.4% | 48.4% | 56.3% | 56.1% | 42.7% | 75.7% | 75.4% | 44.8% | 64.2%
6 | COc1cc2c(cc1OC)-c1[nH]nc(Nc3cccc(F)c3)c1C2 [Inhibitor 6] | 40.6% | 18.4% | 38.8% | 61.4% | 15.9% | 50.1% | 28.9% | 44.4% | 28.0% | 28.1% | 30.0% | 30.7% | 45.3% | 1.4% | 32.5% | 49.7%
7 | CCCNC(=O)Nc1ccc(Oc2ncnc3cc(OC)c(OC)cc23)cc1Cl [Inhibitor 7] | 10.5% | 7.1% | 27.7% | 28.5% | 3.4% | 24.0% | 29.4% | 59.1% | 23.9% | 2.3% | 12.9% | 30.3% | 45.0% | 18.5% | 18.3% | 19.4%
8 | Cc1cc(F)c(Nc2ncnc3cc(OCc4ccccc4)ccc23)cc1O.Cl [Inhibitor 8] | 9.8% | 11.5% | 6.4% | 21.6% | 8.1% | 5.1% | 17.7% | 45.7% | 3.3% | 18.5% | 2.2% | 18.0% | 25.9% | 7.1% | 0.6% | 5.5%
